In the supplement of paper PMC5908809:

Columns and labels:
NK-92 (IL-2 2.5 ng/mL) [1] = assay: drug sensitivity score (DSS) (DSS units); higher = more sensitive; extreme values may be limits of the assay; details: 72 h
[2] = system: normal primary NK cells, pool 1 (3 donors) (IL-2 2.5 ng/mL); assay: as above; details: 72 h
[3] = system: normal primary NK cells, pool 3 (3 donors) (IL-2 2.5 ng/mL); assay: as above; details: 72 h
IMC-1 (IL-2 20 ng/mL) [4] = assay: as above; details: 72 h
[5] = system: normal primary NK cells, pool 2 (3 donors) (IL-2 2.5 ng/mL); assay: as above; details: 72 h
NKL (IL-2 2.5 ng/mL) [6] = assay: as above; details: 72 h
KAI3 (IL-2 2.5 ng/mL) [7] = assay: as above; details: 72 h
[8] = system: normal primary NK cells, pool 1 (3 donors), resting (IL-2 0 ng/mL); assay: as above; details: 72 h
SNK-6 (IL-2 2.5 ng/mL) [9] = assay: as above; details: 72 h
DERL-7 (IL-2 2.5 ng/mL) [10] = assay: as above; details: 72 h
YT (IL-2 2.5 ng/mL) [11] = assay: as above; details: 72 h
NK-YS (IL-2 2.5 ng/mL) [12] = assay: as above; details: 72 h
KHYG-1 (IL-2 2.5 ng/mL) [13] = assay: as above; details: 72 h
NK-92 (IL-2 2.5 ng/mL) [14] = assay: percent inhibition of viability; higher = more inhibition; details: 72 h
[15] = system: normal primary NK cells, pool 1 (3 donors) (IL-2 2.5 ng/mL); assay: as above; details: 72 h
[16] = system: normal primary NK cells, pool 3 (3 donors) (IL-2 2.5 ng/mL); assay: as above; details: 72 h
IMC-1 (IL-2 20 ng/mL) [17] = assay: as above; details: 72 h
[18] = system: normal primary NK cells, pool 2 (3 donors) (IL-2 2.5 ng/mL); assay: as above; details: 72 h
NKL (IL-2 2.5 ng/mL) [19] = assay: as above; details: 72 h
KAI3 (IL-2 2.5 ng/mL) [20] = assay: as above; details: 72 h
[21] = system: normal primary NK cells, pool 1 (3 donors), resting (IL-2 0 ng/mL); assay: as above; details: 72 h
SNK-6 (IL-2 2.5 ng/mL) [22] = assay: as above; details: 72 h
DERL-7 (IL-2 2.5 ng/mL) [23] = assay: as above; details: 72 h
YT (IL-2 2.5 ng/mL) [24] = assay: as above; details: 72 h
NK-YS (IL-2 2.5 ng/mL) [25] = assay: as above; details: 72 h
KHYG-1 (IL-2 2.5 ng/mL) [26] = assay: as above; details: 72 h
[27] = system: normal NK cells expanded with K562-aAPC; assay: as above; details: 72 h, IL-2 2.5 ng/mL
Method: (§1)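 Drug sensitivity and resistance testing on K562-aAPC-expanded normal NK cells: 5 concentrations (10-fold steps over a 10,000-fold range), 72 h at 37 °C, viability by CellTiter-Glo normalised to DMSO and benzethonium chloride controls; DSS from the fitted curve.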

[28] = system: normal NK cells expanded with K562-aAPC; assay: drug sensitivity score (DSS) (DSS units); higher = more sensitive; extreme values may be limits of the assay; details: 72 h; IL-2 2.5 ng/mL
Method: as §1

Question: Which results are given for Nc1nccc(-c2c(-c3ccc(F)cc3)ncn2C2CCCCC2)n1 (max concentration tested 10000 nM)?
Answer: drug sensitivity score (NK-92 (IL-2 2.5 ng/mL) [1]): 6.29; drug sensitivity score [2]: 3.09; drug sensitivity score [3]: 1.17; drug sensitivity score (IMC-1 (IL-2 20 ng/mL) [4]): 0; drug sensitivity score [5]: 4.42; drug sensitivity score (NKL (IL-2 2.5 ng/mL) [6]): 0; drug sensitivity score (KAI3 (IL-2 2.5 ng/mL) [7]): 25.2; drug sensitivity score [8]: 2.37; drug sensitivity score (SNK-6 (IL-2 2.5 ng/mL) [9]): 4.81; drug sensitivity score (DERL-7 (IL-2 2.5 ng/mL) [10]): 2.07; drug sensitivity score (YT (IL-2 2.5 ng/mL) [11]): 3.49; drug sensitivity score (NK-YS (IL-2 2.5 ng/mL) [12]): 4.44; drug sensitivity score (KHYG-1 (IL-2 2.5 ng/mL) [13]): 1.98; percent inhibition of viability (NK-92 (IL-2 2.5 ng/mL) [14]; 1 nM): 4.97%; percent inhibition of viability (NK-92 (IL-2 2.5 ng/mL) [14]; 10 nM): -2.54%; percent inhibition of viability (NK-92 (IL-2 2.5 ng/mL) [14]; 100 nM): 18.6%; percent inhibition of viability (NK-92 (IL-2 2.5 ng/mL) [14]; 1000 nM): 23.2%; percent inhibition of viability (NK-92 (IL-2 2.5 ng/mL) [14]; 10000 nM): 49.9%; percent inhibition of viability ([15]; 1 nM): -3.43%; percent inhibition of viability ([15]; 10 nM): -7.84%; percent inhibition of viability ([15]; 100 nM): 9.95%; percent inhibition of viability ([15]; 1000 nM): 16.4%; percent inhibition of viability ([15]; 10000 nM): 17.9%; percent inhibition of viability ([16]; 1 nM): -7.45%; percent inhibition of viability ([16]; 10 nM): -3.42%; percent inhibition of viability ([16]; 100 nM): 2.49%; percent inhibition of viability ([16]; 1000 nM): 11.6%; percent inhibition of viability ([16]; 10000 nM): 17%; percent inhibition of viability (IMC-1 (IL-2 20 ng/mL) [17]; 1 nM): 0.25%; percent inhibition of viability (IMC-1 (IL-2 20 ng/mL) [17]; 10 nM): 1.14%; percent inhibition of viability (IMC-1 (IL-2 20 ng/mL) [17]; 100 nM): 3.57%; percent inhibition of viability (IMC-1 (IL-2 20 ng/mL) [17]; 1000 nM): 3.69%; percent inhibition of viability (IMC-1 (IL-2 20 ng/mL) [17]; 10000 nM): 3.74%; percent inhibition of viability ([18]; 1 nM): -8.96%; percent inhibition of viability ([18]; 10 nM): -5.75%; percent inhibition of viability ([18]; 100 nM): 14%; percent inhibition of viability ([18]; 1000 nM): 14.7%; percent inhibition of viability ([18]; 10000 nM): 21.2%; percent inhibition of viability (NKL (IL-2 2.5 ng/mL) [19]; 1 nM): -2.84%; percent inhibition of viability (NKL (IL-2 2.5 ng/mL) [19]; 10 nM): 0.96%; percent inhibition of viability (NKL (IL-2 2.5 ng/mL) [19]; 100 nM): 7.22%; percent inhibition of viability (NKL (IL-2 2.5 ng/mL) [19]; 1000 nM): -3.94%; percent inhibition of viability (NKL (IL-2 2.5 ng/mL) [19]; 10000 nM): -2.33%; percent inhibition of viability (KAI3 (IL-2 2.5 ng/mL) [20]; 1 nM): 3.53%; percent inhibition of viability (KAI3 (IL-2 2.5 ng/mL) [20]; 10 nM): 23.9%; percent inhibition of viability (KAI3 (IL-2 2.5 ng/mL) [20]; 100 nM): 60.5%; percent inhibition of viability (KAI3 (IL-2 2.5 ng/mL) [20]; 1000 nM): 90.9%; percent inhibition of viability (KAI3 (IL-2 2.5 ng/mL) [20]; 10000 nM): 66.9%; percent inhibition of viability ([21]; 1 nM): -19.6%; percent inhibition of viability ([21]; 10 nM): -29.4%; percent inhibition of viability ([21]; 100 nM): 3.3%; percent inhibition of viability ([21]; 1000 nM): 5.1%; percent inhibition of viability ([21]; 10000 nM): 33.2%; percent inhibition of viability (SNK-6 (IL-2 2.5 ng/mL) [22]; 1 nM): -26.2%; percent inhibition of viability (SNK-6 (IL-2 2.5 ng/mL) [22]; 10 nM): -7.24%; percent inhibition of viability (SNK-6 (IL-2 2.5 ng/mL) [22]; 100 nM): -4.71%; percent inhibition of viability (SNK-6 (IL-2 2.5 ng/mL) [22]; 1000 nM): 7.8%; percent inhibition of viability (SNK-6 (IL-2 2.5 ng/mL) [22]; 10000 nM): 64.1%; percent inhibition of viability (DERL-7 (IL-2 2.5 ng/mL) [23]; 1 nM): -3.56%; percent inhibition of viability (DERL-7 (IL-2 2.5 ng/mL) [23]; 10 nM): -1.12%; percent inhibition of viability (DERL-7 (IL-2 2.5 ng/mL) [23]; 100 nM): -1.49%; percent inhibition of viability (DERL-7 (IL-2 2.5 ng/mL) [23]; 1000 nM): 5.28%; percent inhibition of viability (DERL-7 (IL-2 2.5 ng/mL) [23]; 10000 nM): 29%; percent inhibition of viability (YT (IL-2 2.5 ng/mL) [24]; 1 nM): 4.57%; percent inhibition of viability (YT (IL-2 2.5 ng/mL) [24]; 10 nM): 3.69%; percent inhibition of viability (YT (IL-2 2.5 ng/mL) [24]; 100 nM): 9.54%; percent inhibition of viability (YT (IL-2 2.5 ng/mL) [24]; 1000 nM): 15.5%; percent inhibition of viability (YT (IL-2 2.5 ng/mL) [24]; 10000 nM): 35.5%; percent inhibition of viability (NK-YS (IL-2 2.5 ng/mL) [25]; 1 nM): -3.68%; percent inhibition of viability (NK-YS (IL-2 2.5 ng/mL) [25]; 10 nM): -2.41%; percent inhibition of viability (NK-YS (IL-2 2.5 ng/mL) [25]; 100 nM): 3.69%; percent inhibition of viability (NK-YS (IL-2 2.5 ng/mL) [25]; 1000 nM): 14.9%; percent inhibition of viability (NK-YS (IL-2 2.5 ng/mL) [25]; 10000 nM): 47.6%; percent inhibition of viability (KHYG-1 (IL-2 2.5 ng/mL) [26]; 1 nM): 4.98%; percent inhibition of viability (KHYG-1 (IL-2 2.5 ng/mL) [26]; 10 nM): -0.44%; percent inhibition of viability (KHYG-1 (IL-2 2.5 ng/mL) [26]; 100 nM): 4.5%; percent inhibition of viability (KHYG-1 (IL-2 2.5 ng/mL) [26]; 1000 nM): 3.42%; percent inhibition of viability (KHYG-1 (IL-2 2.5 ng/mL) [26]; 10000 nM): 31.7%; percent inhibition of viability ([27]; 1 nM): -4.54%; percent inhibition of viability ([27]; 10 nM): -4.14%; percent inhibition of viability ([27]; 100 nM): 0.36%; percent inhibition of viability ([27]; 1000 nM): -0.71%; percent inhibition of viability ([27]; 10000 nM): 21.9%; drug sensitivity score [28]: 0.68
